Patent publication US10258613B2, “Compositions for treating retinal degeneration and methods of production and use thereof” (The Board of Regents of the University of Oklahoma, priority 2014, dated 2019)
“Also recorded” adds a separate entry of the source.

Assays:
Weri RB-1 cell line = test: M-opsin and S-opsin expression (quantitative RT-PCR) after T3 with or without TR antagonists; assay type: cell-based; details: Weri cells; for inhibition of T3-induced M-opsin expression / inhibition of the effects of T3 treatment on M-opsin and S-opsin expression: dose-dependent pattern
Procedure: (§1) The cone precursor Weri RB-1 cell line was used to determine the antagonistic activity of the TR antagonists, NH-3 and 1-850. Expression levels of M-opsin and S-opsin in Weri cells following T3 treatment in the presence and absence of TR antagonists were analyzed by quantitative RT-PCR. […] NH-3, 1-850, or vehicle was delivered to the eye by intravitreal injection at postnatal day 5 (P5), and retinas and eyes were collected on P24. Cone survival was evaluated by examining cone density on retinal whole mounts and retinal sections by immunohistochemical approaches.

cones in Rpe65−/− mice = test: Cone density after intravitreal injection of TR antagonists; assay type: in vivo, mouse; details: for cone death, in words: intravitreal delivery; for cone density increase: intravitreal injection at P5 (1.0 μl of 5 mM NH-3 or 10 mM 1-850), collected P24; for cone protection, in words: intravitreal injection at P5, P24, PNA staining
Procedure: (§2) The cornea and lens were then removed, and the eyes were fixed in 4% PFA in PBS (vol/vol) at room temperature for another 4-6 hours. […] Paraffin sections (5 μm thickness) passing vertically through the retina (along the vertical meridian passing through the optic nerve head) were prepared using a Leica microtome.
Briefly, retinal whole mounts or sections were blocked in Hank's balanced salt solution containing 5% bovine serum albumin (BSA) and 0.5% Triton-X 100 for 1 hour at room temperature. Primary antibody incubation (anti-M-opsin, 1:500; anti-S-opsin, 1:500; anti-CAR, 1:500; and anti-GNAT2, 1:500) was performed at room temperature for 1 hour. […] PNA immunohistochemistry was performed using biotinylated PNA (1:50) and streptavidin-FITC (1:200). […] For retinal whole mounts, images were taken using a 40× objective on an Olympus microscope, approximately 1.0 mm from the optic nerve in the center of each quadrant (FIG. 1). […] Cone density on retinal cross section was evaluated by counting the number of cones present in the dorsal and ventral areas. The averages of the counts were analyzed and graphed using GraphPad Prism software (GraphPad Software, San Diego, Calif.).
as §1

[1] = Serum T3 levels by mouse/rat T3 ELISA in anti-thyroid- or T3-treated mice; assay type: in vivo; details: for increase of serum T3 levels compared with untreated controls: around 24 hours after last injection; for concentration at 24 h: mouse, serum, sc, 0.1 μg/g body weight, T3 0.1 μg/g s.c. once each day 30 days from P1, around 24 hours after last injection
Procedure: (§3) For anti-thyroid treatment, mother Rpe65^−/− and cpfl1 mice were treated with methimazole (MMI) (Sigma-Aldrich, St. Louis, Mo., 0.05% wt/vol) and sodium perchlorate monohydrate (PM) (Sigma-Aldrich, 1.0% wt/vol) in drinking water, beginning on the day they delivered pups and the treatment (for both mother and pups) continued for 30 days. In a separate experiment, post-weaning cpfl1 mice received MMI and PM treatment for 30 days, beginning on P25. For T3 treatment, Cngb3^−/− and Gucy2e^−/− mice received T3 (Sigma-Aldrich, 0.1 μg/g body weight, subcutaneous injection once each day) or vehicle (saline) for 30 days, beginning on P1. At the end of the treatments, blood samples were collected for measurements of serum T3 levels, and eyes and retinas were collected for evaluating cone density and cone specific protein/mRNA expression. For T3-treated mice, blood samples were collected around 24 hours after the last injection.
Serum triiodothyronine (T3) levels were analyzed using a mouse/rat T3 ELISA kit (Calbiotech Inc., Spring Valley, Calif.) with a total T3 detection limit at 0.25 ng/ml. Briefly, 25 μl of serum samples and standards with different T3 concentrations were added into the assigned wells, the assays were performed by following the manufacturer's instructions, and the absorbance of each well was read at 450 nm (SPECTRAMAX® 190 Microplate Spectrophotometer, Molecular Devices LLC, Sunnyvale, Calif.). The standard curve was generated by using a three-parameter exponential non-linear regression in SIGMAPLOT® software (Systat Software, Inc., San Jose, Calif.), and the sample T3 concentration was then calculated according to the three-parameter exponential equation.

cones in Cngb3−/− mice = test: Cone density by immunofluorescence labeling after T3 treatment; assay type: in vivo, mouse
Procedure: as §3
as §2, with “Mouse retinal whole mounts or cross sections were prepared for immunohistochemical analysis as described previously (Ding et al., 2009; and Xu et al., 2011). […] The” for “The”
(§4) Immunohistochemical labeling of cones using antibodies against peanut agglutinin (PNA), cone opsin, cone arrestin (CAR), and guanine nucleotide-binding protein G(t) subunit alpha-2 (GNAT2) was performed as described previously (Ding et al., 2009). Briefly, retinal whole mounts or sections were blocked in Hank's balanced salt solution containing 5% bovine serum albumin (BSA) and 0.5% Triton-X 100 for 1 hour at room temperature. Primary antibody incubation (anti-M-opsin, 1:500; anti-S-opsin, 1:500; anti-CAR, 1:500; and anti-GNAT2, 1:500) was performed at room temperature for 1 hour. Following ALEXA FLUOR®-488 or -568 (Molecular Probes, Inc., Eugene, Oreg.) or FITC-conjugated secondary antibody incubation and rinses, slides were mounted and cover-slipped. PNA immunohistochemistry was performed using biotinylated PNA (1:50) and streptavidin-FITC (1:200). Fluorescent signals were imaged using an Olympus AX70 fluorescence microscope (Olympus Corp., Center Valley, Pa.) with QCapture imaging software (QImaging Corp., Surrey, BC, Canada) or an Olympus IX81-FV500 confocal laser scanning microscope (Olympus, Melville, N.Y.) (using excitation wavelengths of 543 nm for ALEXA FLUOR®-568 and 488 nm for FITC) and FLUOVIEW® imaging software (Olympus, Melville, N.Y.). Evaluation of cone density on retinal whole mounts and retinal cross-sections was performed as described previously (Xu et al., 2011; and Komeima et al., 2006). For retinal whole mounts, images were taken using a 40× objective on an Olympus microscope, approximately 1.0 mm from the optic nerve in the center of each quadrant (FIG. 1). Image scale was calibrated and cones were counted in four regions, each with dimensions of 317 μm×317 μm, using ImageJ software (ImageJ software website from National Institutes of Health, Bethesda, Md.). Cone density on retinal cross section was evaluated by counting the number of cones present in the dorsal and ventral areas. The averages of the counts were analyzed and graphed using GraphPad Prism software (GraphPad Software, San Diego, Calif.).

cones in Gucy2e−/− mice = test: as above; assay type: in vivo, mouse
Procedure: as §3
as §2, with “Mouse retinal whole mounts or cross sections were prepared for immunohistochemical analysis as described previously (Ding et al., 2009; and Xu et al., 2011). […] The” for “The”
as §4

[2] = test system: rod photoreceptors in Cngb3−/− mice; test: Retinal morphometric analysis (ONL nuclei count, ONL thickness) after T3 treatment; assay type: in vivo, mouse
Procedure: as §3
as §2, with “Mouse retinal whole mounts or cross sections were prepared for immunohistochemical analysis as described previously (Ding et al., 2009; and Xu et al., 2011). […] The” for “The”
(§5) Retina cross sections labeled with DAPI (Vector Laboratory Inc., Burlingame, Calif.) were used for morphometric analysis to evaluate outer nuclear layer (ONL) integrity/rod survival as described previously (Xu et al., 2012). In each hemisphere, the number of nuclei in the ONL and the thickness of the ONL were measured at 0.24 mm intervals in nine defined areas, starting at the optic nerve head and extending along the vertical meridian toward the dorsal and ventral ora serrata. The mean number of nuclei and ONL thickness at the dorsal and ventral locations was then calculated. In each experimental group, two-three sections from each of the retinas of three-four mice were measured. The averages of the measurements in each location were plotted, and the measurements in each hemisphere were analyzed and graphed using GraphPad Prism software (GraphPad Software, San Diego, Calif.).

[3] = test system: rod photoreceptors in Gucy2e−/− mice; test: as above; assay type: in vivo, mouse
Procedure: as §3
as §2, with “Mouse retinal whole mounts or cross sections were prepared for immunohistochemical analysis as described previously (Ding et al., 2009; and Xu et al., 2011). […] The” for “The”
as §5

cones = details: mice; effect reversed by deletion of TRβ2 gene; cited from earlier work
[4] = T3 0.1 μg/g s.c. daily 30 days from P1

Compound: O=C(C=C1CCN(c2ccc([N+](=O)[O-])cc2)CC1)NNC(=O)Nc1cccc(C(F)(F)F)c1 [1-850]
- inhibition of T3-induced M-opsin expression (Weri RB-1 cell line): inhibited T3-induced M-opsin expression
- inhibition of the effects of T3 treatment on M-opsin and S-opsin expression (Weri RB-1 cell line): inhibited
- cone death, in words (cones in Rpe65−/− mice): reduced cone death
- cone density increase (cones in Rpe65−/− mice): about 35%
- cone protection, in words (cones in Rpe65−/− mice): protected cones

Compound: Cc1cc(OCC(=O)O)cc(C)c1Cc1cc(C#Cc2ccc([N+](=O)[O-])cc2)c(O)c(C(C)C)c1 [NH-3]
- inhibition of T3-induced M-opsin expression (Weri RB-1 cell line): inhibited T3-induced M-opsin expression
- inhibition of the effects of T3 treatment on M-opsin and S-opsin expression (Weri RB-1 cell line): inhibited
- cone death, in words (cones in Rpe65−/− mice): reduced cone death
- cone density increase (cones in Rpe65−/− mice): about 35%
- cone protection, in words (cones in Rpe65−/− mice): protected cones

Compound: N[C@@H](Cc1cc(I)c(Oc2ccc(O)c(I)c2)c(I)c1)C(=O)O [T3, Triiodothyronine]
- increase of serum T3 levels compared with untreated controls ([1]; Cngb3−/− mice): about 8 fold
- increase of serum T3 levels compared with untreated controls ([1]; Gucy2e−/− mice): about 6 fold
- concentration at 24 h ([1]; Cngb3−/− mice): 3.85 ± 0.55 nM
- concentration at 24 h ([1]; Gucy2e−/− mice): 3.43 ± 0.48 nM
- reduction of CAR-labeled cones vs untreated (cones in Cngb3−/− mice; [4]): about 40%
- reduction of PNA-labeled cones vs untreated (cones in Cngb3−/− mice; [4]): about 30%
- M-opsin labeled-cones vs untreated controls (cones in Cngb3−/− mice; T3 30 days from P1): greatly reduced
- S-opsin labeled-cones vs untreated controls (cones in Cngb3−/− mice; T3 30 days from P1): greatly reduced
- cone degeneration / cone density, in words (cones in Cngb3−/− mice; T3 30 days from P1): significantly increased; also recorded: significantly reduced; also recorded: deteriorated cones
- cone density decrease (cones in Cngb3−/− mice; summary statement): about 40%
- reduction of density of cones labeled by CAR vs untreated controls (cones in Gucy2e−/− mice; [4]): about 30%
- reduction of density of cones labeled by PNA vs untreated controls (cones in Gucy2e−/− mice; [4]): about 30%
- reduction of density of cones labeled by cone opsin vs untreated controls (cones in Gucy2e−/− mice; [4]): about 30%
- cone degeneration / cone density, in words (cones in Gucy2e−/− mice; T3 30 days from P1): significantly increased; also recorded: significantly diminished cone density; also recorded: deteriorated cones
- cone density decrease (cones in Gucy2e−/− mice; summary statement): about 40%
- reduction of average number of nuclei in the ONL vs untreated controls ([2]; T3 30 days): about 30%
- rod photoreceptor viability, in words ([2]; T3 30 days from P1): causes rod degeneration
- reduction of average number of nuclei in the ONL vs untreated controls ([3]; T3 30 days): about 30%
- rod photoreceptor viability, in words ([3]; T3 30 days from P1): causes rod degeneration
- M-opsin expression (Weri RB-1 cell line; T3 treatment): increased M-opsin expression
- S-opsin expression (Weri RB-1 cell line; T3 treatment): decreased S-opsin expression
- cone viability (cones): cause cone death
